The results in this text go back to ChEMBL document CHEMBL1152443, “Three adducts of butenolide and apigenin glycoside from the leaves of Machilus japonica” (J Nat Prod, 2009).

Assay [1] has as its system Geobacillus stearothermophilus. The assay is described as follows: Inhibition of Bacillus stearothermophilus alpha-glucosidase type IV at 100ug/mL.
The subject of assay [2] is Geobacillus stearothermophilus. The assay is described as follows: Inhibition of Bacillus stearothermophilus alpha-glucosidase type IV at 10ug/mL.
A short description of assay [3]: Inhibition of Bacillus stearothermophilus alpha-glucosidase type IV. Details: species or system Geobacillus stearothermophilus.
The test system of assay [4] is PC-3. The assay is described as follows: Cytotoxicity against human PC3 cells. Format: functional, cell-based.

Activity calls are given as the source filed them. No cut-off for these calls is given here.

The compound `CCCCCCCC[C@@H]1c2c(c([C@@H]3O[C@H](CO)[C@@H](O)[C@H](O)[C@H]3O[C@@H]3O[C@@H](C)[C@H](O)[C@@H](O)[C@H]3O)c(O)c3c(=O)cc(-c4ccc(O)cc4)oc23)OO[C@@]12C(=O)O[C@H](C)C2=O` had an inhibition in assay [1] of 93.7%. Moreover, the result in assay [2] was inactive. On the same counts, the results for `O=c1cc(-c2ccc(O[C@@H]3O[C@H](CO)[C@@H](O)[C@H](O)[C@H]3O)cc2)oc2cc(O)cc(O)c12` are 18.7% and “inactive”. In turn, `C[C@H]1O[C@H](O[C@H]2[C@H](O)[C@@H](O)[C@@H](O[C@H]3[C@H](O)[C@@H](O)C(O)O[C@@H]3CO)O[C@@H]2CO)[C@H](O)[C@@H](O)[C@@H]1N[C@H]1C=C(CO)[C@@H](O)[C@H](O)[C@H]1O` (stereo partly drawn) [ACARBOSE] yielded an IC50 in assay [3] of 33 nM. This lies in the double-digit nanomolar range. On to `CCCCCCCCCC[C@@H]1c2c(cc(O)c3c(=O)cc(-c4ccc(O[C@@H]5O[C@H](CO)[C@@H](O)[C@H](O)[C@H]5O)cc4)oc23)OO[C@@]12C(=O)O[C@H](C)C2=O`, for which the inhibition in assay [1] stood at 64.7%. Besides, the result in assay [2] was inactive. With `CCCCCCCCCC[C@@H]1c2c(c([C@@H]3O[C@H](CO)[C@@H](O)[C@H](O)[C@H]3O[C@@H]3O[C@@H](C)[C@H](O)[C@@H](O)[C@H]3O)c(O)c3c(=O)cc(-c4ccc(O)cc4)oc23)OO[C@@]12C(=O)O[C@H](C)C2=O` [APIGENOSYLIDE A], the IC50 in assay [4] is more than 30 µg/mL.

A word on the inhibition: it is the change of the read-out against control, counted positive when it falls. Lower therefore signals little suppression. As usually defined, the IC50 is the concentration that inhibits the measured activity by half. Read a low IC50 as higher potency.
